Legend:
Type in all cases: cell-based
[1] = system: Arthrobacter oxydans ATCC 8010; experiment: minimum inhibitory concentration; details: Gram + Bacteria
[2] = system: Penicillium funiculosum CECT 2914; experiment: minimum inhibitory concentration; details: Fungi
[3] = system: Escherichia coli 0157H7; experiment: minimum inhibitory concentration; details: Gram − Bacteria
[4] = system: Alcaligenes faecalis ATCC 8750; experiment: minimum inhibitory concentration; details: Gram − Bacteria
[5] = system: Penicillium chrysogenum CECT 2802; experiment: minimum inhibitory concentration; details: Fungi
[6] = system: Rhodotorula rubra CECT 1158; experiment: minimum inhibitory concentration; details: Yeast
[7] = system: Bacillus subtilis ATCC 6633; experiment: minimum inhibitory concentration; details: Gram + Bacteria
[8] = system: Staphylococcus aureus ATCC 6538; experiment: minimum inhibitory concentration; details: Gram + Bacteria
[9] = system: Proteus mirabilis CECT 170; experiment: minimum inhibitory concentration; details: Gram − Bacteria
[10] = system: Enterobacter aerogenes CECT 689; experiment: minimum inhibitory concentration; details: Gram − Bacteria
[11] = system: Bordetella bronchiseptica ATCC 4617; experiment: minimum inhibitory concentration; details: Gram − Bacteria
[12] = system: Klebsiella pneumoniae var pneumoniae CECT 178; experiment: minimum inhibitory concentration; details: Gram − Bacteria
[13] = system: Bacillus cereus var mycoide ATCC 11778; experiment: minimum inhibitory concentration; details: Gram + Bacteria
[14] = system: Serratia marcenses CECT 274; experiment: minimum inhibitory concentration; details: Gram − Bacteria
[15] = system: inoculum mixture; experiment: preservative efficacy (Antimicrobial Effectiveness Testing USP 24th Edition), 28 days' check; details: 0.20 g of LAE
Description: (§1) This assay consists of the contamination of the protecting formulations with an inoculum mixture of 10^8 cfu/mL concentration, for each of the microorganisms, and the determination of the number of viable cells in the time. This inoculum mixture is composed of the following microorganisms:
(§2) The cosmetic composition to be analysed is divided into sterile containers with 50 g of product for each flask. Each container is inoculated with 0.5 mL of inoculum (10^8 cfu/mL). The target concentration is 10^6 cfu/mL, approximately. All the containers are kept at a temperature between 20-25° C. and are protected from light.
(§3) The level of the microbial contamination is checked at 0 hours, 7 days, 14 days and 28 days. The number of colonies is evaluated by dilution in buffer peptone with the appropriate neutraliser agent of the preservative. The culture media used for counting the microorganisms are: Soya triptone (35-37° C., 48 hours) for the determination of bacteria; Sabouraud agar with chloramphenicol for fungi and yeast (25° C., 3-5 days).
(§4) According to Antimicrobial Effectiveness Testing USP 24th Edition, 1999 (pp. 1809-1811), an antimicrobial preservative is considered to be effective in topically used products made with aqueous bases or vehicles, non-sterile nasal products and emulsions, including those applied to mucous membranes, if: • Not less than 2.0 logarithm reduction from the initial calculated bacteria's count is reached at 14 days and no increase from the 14 days' count at 28 days is detected; and • No increase from the initial calculated count of yeast and moulds is observed.

[16] = system: Aerobes; experiment: preservative efficacy (Antimicrobial Effectiveness Testing USP 24th Edition) in cosmetic formulations; details: 0.20 g of LAE
Description: as §1, §2, §3, §4

[17] = system: Lactobacillus delbrueckii ssp lactis CECT 372; experiment: minimum inhibitory concentration; details: Gram + Bacteria
[18] = system: Gliocadium virens ATCC 4645; experiment: minimum inhibitory concentration; details: Fungi

## CCCCCCCCCCCC(=O)N[C@@H](CCCN=C(N)N)C(=O)OCC.Cl [LAE, ethyl ester of the lauramide of the arginine monohydrochloride]
[1]
  M.I.C.: 64 ppm
[2]
  M.I.C.: 16 ppm
[3]
  M.I.C.: 20 ppm
[4]
  M.I.C.: 64 ppm
[5]
  M.I.C.: 128 ppm
[6]
  M.I.C.: 16 ppm
[7]
  M.I.C.: 16 ppm
[8]
  M.I.C.: 32 ppm
[9]
  M.I.C.: 32 ppm
[10]
  M.I.C.: 32 ppm
[11]
  M.I.C.: 128 ppm
[12]
  M.I.C.: 32 ppm
[13]
  M.I.C.: 32 ppm
[14]
  M.I.C.: 32 ppm
[15]; Example 1, oil-in-water emulsion with non-ionic surfactant
  count at 28 days against the 14 days' count: no increase
[15]; Example 2, oil-in-water emulsion with an ionic emulsifier
  count at 28 days against the 14 days' count: no increase
[15]; Example 3, water in oil emulsion with non-ionic emulsifiers
  count at 28 days against the 14 days' count: no increase
[15]; Example 4, aqueous solution with a surfactants' mixture (bath gels, disodium cocoamfoacetate)
  count at 28 days against the 14 days' count: no increase
[15]; Example 5, aqueous solution with a surfactants' mixture (bath gels, disodium lauryl sulfosuccinate)
  count at 28 days against the 14 days' count: no increase
[15]; Example 6, hydroalcoholic gel (after-shaving lotions)
  count at 28 days against the 14 days' count: no increase
[15]; Example 7, facial tonic
  count at 28 days against the 14 days' count: no increase
[15]; Example 8, mask-up cleaner
  count at 28 days against the 14 days' count: no increase
[15]; Example 9, fluid oil-in-water emulsion with non-ionic surfactants (body oil)
  count at 28 days against the 14 days' count: no increase
[15]; Example 10, toothpaste formulation
  count at 28 days against the 14 days' count: no increase
[15]; Example 11, aqueous solution with surfactants (shampoos)
  count at 28 days against the 14 days' count: no increase
[15]; Example 12, oil-in-water emulsion with non-ionic surfactants (face cream)
  count at 28 days against the 14 days' count: no increase
[15]; Example 13, oil-in-water emulsion with non-ionic surfactants (sun protector, polysorbate 60)
  count at 28 days against the 14 days' count: no increase
[15]; Example 14, oil-in-water emulsion with non-ionic surfactants (sun protector, cetyl dimethicone copolyol)
  count at 28 days against the 14 days' count: no increase
[15]; Example 15, emulsion for hands care
  count at 28 days against the 14 days' count: no increase
[16]; Example 1, oil-in-water emulsion with non-ionic surfactant, 7 days
  viable count With LAE: 3.1 · 10^3 cfu/mL
[16]; Example 1, oil-in-water emulsion with non-ionic surfactant, 14 days
  viable count With LAE: 3.3 · 10^2 cfu/mL
[16]; Example 1, oil-in-water emulsion with non-ionic surfactant, Initial
  viable count With LAE: 1.1 · 10^6 cfu/mL
[16]; Example 2, oil-in-water emulsion with an ionic emulsifier, 7 days
  viable count With LAE: 1.6 · 10^4 cfu/mL
[16]; Example 2, oil-in-water emulsion with an ionic emulsifier, 14 days
  viable count With LAE: 6.5 · 10^2 cfu/mL
[16]; Example 2, oil-in-water emulsion with an ionic emulsifier, Initial
  viable count With LAE: 2.7 · 10^6 cfu/mL
[16]; Example 3, water in oil emulsion with non-ionic emulsifiers, 7 days
  viable count With LAE: 1.8 · 10^3 cfu/mL
[16]; Example 3, water in oil emulsion with non-ionic emulsifiers, 14 days
  viable count With LAE: <9.9 · 10^1 cfu/mL
[16]; Example 3, water in oil emulsion with non-ionic emulsifiers, Initial
  viable count With LAE: 6.2 · 10^6 cfu/mL
[16]; Example 4, aqueous solution with a surfactants' mixture (bath gels, disodium cocoamfoacetate), 7 days
  viable count With LAE: 5.8 · 10^3 cfu/mL
[16]; Example 4, aqueous solution with a surfactants' mixture (bath gels, disodium cocoamfoacetate), 14 days
  viable count With LAE: <9.9 · 10^1 cfu/mL
[16]; Example 4, aqueous solution with a surfactants' mixture (bath gels, disodium cocoamfoacetate), Initial
  viable count With LAE: 3.3 · 10^6 cfu/mL
[16]; Example 5, aqueous solution with a surfactants' mixture (bath gels, disodium lauryl sulfosuccinate), 7 days
  viable count With LAE: 4.8 · 10^2 cfu/mL
[16]; Example 5, aqueous solution with a surfactants' mixture (bath gels, disodium lauryl sulfosuccinate), 14 days
  viable count With LAE: 1.3 · 10^2 cfu/mL
[16]; Example 5, aqueous solution with a surfactants' mixture (bath gels, disodium lauryl sulfosuccinate), Initial
  viable count With LAE: 6.7 · 10^6 cfu/mL
[16]; Example 6, hydroalcoholic gel (after-shaving lotions), 7 days
  viable count With LAE: 6.9 · 10^3 cfu/mL
[16]; Example 6, hydroalcoholic gel (after-shaving lotions), 14 days
  viable count With LAE: <9.9 · 10^1 cfu/mL
[16]; Example 6, hydroalcoholic gel (after-shaving lotions), Initial
  viable count With LAE: 3.7 · 10^6 cfu/mL
[16]; Example 7, facial tonic, 7 days
  viable count With LAE: 3.6 · 10^3 cfu/mL
[16]; Example 7, facial tonic, 14 days
  viable count With LAE: 5.9 · 10^2 cfu/mL
[16]; Example 7, facial tonic, Initial
  viable count With LAE: 2.7 · 10^6 cfu/mL
[16]; Example 8, mask-up cleaner, 7 days
  viable count With LAE: 3.8 · 10^3 cfu/mL
[16]; Example 8, mask-up cleaner, 14 days
  viable count With LAE: 6.7 · 10^2 cfu/mL
[16]; Example 8, mask-up cleaner, Initial
  viable count With LAE: 4.5 · 10^6 cfu/mL
[16]; Example 9, fluid oil-in-water emulsion with non-ionic surfactants (body oil), 7 days
  viable count With LAE: 7.6 · 10^3 cfu/mL
[16]; Example 9, fluid oil-in-water emulsion with non-ionic surfactants (body oil), 14 days
  viable count With LAE: <9.9 · 10^1 cfu/mL
[16]; Example 9, fluid oil-in-water emulsion with non-ionic surfactants (body oil), Initial
  viable count With LAE: 4.5 · 10^6 cfu/mL
[16]; Example 10, toothpaste formulation, 7 days
  viable count With LAE: 3.3 · 10^3 cfu/mL
[16]; Example 10, toothpaste formulation, 14 days
  viable count With LAE: 8.0 · 10^2 cfu/mL
[16]; Example 10, toothpaste formulation, Initial
  viable count With LAE: 4.5 · 10^6 cfu/mL
[16]; Example 11, aqueous solution with surfactants (shampoos), 7 days
  viable count With LAE: 4.8 · 10^3 cfu/mL
[16]; Example 11, aqueous solution with surfactants (shampoos), 14 days
  viable count With LAE: 7.0 · 10^2 cfu/mL
[16]; Example 11, aqueous solution with surfactants (shampoos), Initial
  viable count With LAE: 3.3 · 10^6 cfu/mL
[16]; Example 12, oil-in-water emulsion with non-ionic surfactants (face cream), 7 days
  viable count With LAE: 3.7 · 10^4 cfu/mL
[16]; Example 12, oil-in-water emulsion with non-ionic surfactants (face cream), 14 days
  viable count With LAE: 1.9 · 10^3 cfu/mL
[16]; Example 12, oil-in-water emulsion with non-ionic surfactants (face cream), Initial
  viable count With LAE: 1.1 · 10^6 cfu/mL
[16]; Example 13, oil-in-water emulsion with non-ionic surfactants (sun protector, polysorbate 60), 7 days
  viable count With LAE: 8.4 · 10^3 cfu/mL
[16]; Example 13, oil-in-water emulsion with non-ionic surfactants (sun protector, polysorbate 60), 14 days
  viable count With LAE: 7.5 · 10^2 cfu/mL
[16]; Example 13, oil-in-water emulsion with non-ionic surfactants (sun protector, polysorbate 60), Initial
  viable count With LAE: 3.1 · 10^6 cfu/mL
[16]; Example 14, oil-in-water emulsion with non-ionic surfactants (sun protector, cetyl dimethicone copolyol), 7 days
  viable count With LAE: 9.4 · 10^2 cfu/mL
[16]; Example 14, oil-in-water emulsion with non-ionic surfactants (sun protector, cetyl dimethicone copolyol), 14 days
  viable count With LAE: 8.7 · 10^2 cfu/mL
[16]; Example 14, oil-in-water emulsion with non-ionic surfactants (sun protector, cetyl dimethicone copolyol), Initial
  viable count With LAE: 1.4 · 10^6 cfu/mL
[16]; Example 15, emulsion for hands care, 7 days
  viable count With LAE: 3.3 · 10^3 cfu/mL
[16]; Example 15, emulsion for hands care, 14 days
  viable count With LAE: <9.9 · 10^1 cfu/mL
[16]; Example 15, emulsion for hands care, Initial
  viable count With LAE: 4.4 · 10^6 cfu/mL
[17]
  M.I.C.: 16 ppm
[18]
  M.I.C.: 32 ppm

From US8388986B2, “Use of cationic surfactants in cosmetic preparations” (priority 2001, dated 2013)
